Measurements: patent publication US9777002B2, “Inhibitors of the renal outer medullary potassium channel” (Merck Sharp & Dohme Corp., priority 2012, dated 2017)
pIC50: −log10 of the molar value.

Target: T1, hROMK (hKir1.1) (Homo sapiens, UniProt P48048)
T1 construct: expressed in transfected cells
T1 sequence (P48048 1-391): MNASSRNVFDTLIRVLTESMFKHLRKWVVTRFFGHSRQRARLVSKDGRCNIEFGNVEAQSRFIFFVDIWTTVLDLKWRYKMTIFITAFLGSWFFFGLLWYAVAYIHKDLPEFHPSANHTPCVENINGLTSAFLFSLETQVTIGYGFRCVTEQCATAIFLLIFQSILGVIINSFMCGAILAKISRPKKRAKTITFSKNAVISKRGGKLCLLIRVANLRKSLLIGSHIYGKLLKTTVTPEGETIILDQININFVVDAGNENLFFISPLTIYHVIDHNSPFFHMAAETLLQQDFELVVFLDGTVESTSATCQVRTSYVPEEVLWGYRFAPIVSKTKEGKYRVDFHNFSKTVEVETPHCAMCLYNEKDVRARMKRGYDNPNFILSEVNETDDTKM
Assay: Thallium Flux Assay
Format: cell-based
Settings: HEK293 cells stably expressing hROMK (hKir1.1)
Summary of the method: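 HEK293 cells stably expressing hROMK were loaded with FluxOR dye for 90 min, then incubated with compound in probenecid assay buffer plus 0.3 mM ouabain, pH 7.4, for 30 min at 23-25 °C. Flux was triggered with 3 mM thallium/0.3 mM potassium (final) and read on FLIPR-Tetra for ~10 min. IC50 was calculated against the signal blocked by 3 μM control inhibitor.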

Compound	pIC50
Cc1c([C@@H](O)CN2CC[C@H](NC(=O)c3ccc(-n4cnnn4)nc3)[C@H](F)C2)ccc2c1COC2=O (single isomer, unassigned) [50 B]	6.03
Cc1c([C@@H](O)CN2CCC(NC(=O)c3ccc(C#N)nc3)CC2)ccc2c1COC2=O [Example 24, (R)-6-Cyano-N-(1-(2-hydroxy-2-(4-methyl-1-oxo-1,3-dihydroisobenzofuran-5-yl)ethyl)piperidin-4-yl)nicotinamide]	6.82
Cc1c([C@@H](O)CN2CCC(NC(=O)c3ccc(-c4nccs4)cc3)CC2)ccc2c1COC2=O [Example 75, (R)-N-(1-(2-Hydroxy-2-(4-methyl-1-oxo-1,3-dihydroisobenzofuran-5-yl)ethyl)piperidin-4-yl)-4-(thiazol-2-yl)benzamide]	6.41
Cc1c([C@@H](O)CN2CC[C@H](NC(=O)c3ccc(-n4cnnn4)cn3)C2)ccc2c1COC2=O [Example 61, N-((S)-1-((R)-2-Hydroxy-2-(4-methyl-1-oxo-1,3-dihydroisobenzofuran-5-yl)ethyl)pyrrolidin-3-yl)-5-(1H-tetrazol-1-yl)picolinamide]	6.64
Cc1c([C@@H](O)CN2CC3C(C2)C3NC(=O)c2ccc(C#N)cn2)ccc2c1COC2=O (stereo partly drawn) [Example 33, 5-Cyano-N-(3-((R)-2-hydroxy-2-(4-methyl-1-oxo-1,3-dihydroisobenzofuran-5-yl)ethyl)-3-azabicyclo[3.1.0]hexan-6-yl)picolinamide]	7.22
Cc1c([C@@H](O)CN2CCC(C3(NC(=O)c4ccc(-n5cnnn5)cn4)CCC3)C2)ccc2c1COC2=O (stereo partly drawn) [Example 70, N-(1-(1-((R)-2-Hydroxy-2-(4-methyl-1-oxo-1,3-dihydroisobenzofuran-5-yl)ethyl)pyrrolidin-3-yl)cyclobutyl)-5-(1H-tetrazol-1-yl)picolinamide]	6.12
Cc1cc(C(=O)N[C@H]2CCN(C[C@H](O)c3ccc4c(c3C)COC4=O)C[C@H]2F)ccc1C#N (single isomer, unassigned) [47 B]	6.74
Cc1c([C@@H](O)CN2CCC(NC(=O)c3ncc(C#N)c4ccccc34)CC2)ccc2c1COC2=O [Example 42, (R)-4-Cyano-N-(1-(2-hydroxy-2-(4-methyl-1-oxo-1,3-dihydroisobenzofuran-5-yl)ethyl)piperidin-4-yl)isoquinoline-1-carboxamide]	7.00
Cc1cc(C(=O)NC2CCN(C[C@H](O)c3ccc4c(c3C)COC4=O)CC2F)ncc1C#N (single isomer, unassigned) [48 A]	7.10
Cc1c([C@@H](O)CN2CCC(C)(NC(=O)c3cnc(-n4cnnn4)cn3)CC2)ccc2c1COC2=O [Example 72, (R)-N-(1-(2-Hydroxy-2-(4-methyl-1-oxo-1,3-dihydroisobenzofuran-5-yl)ethyl)-4-methylpiperidin-4-yl)-5-(1H-tetrazol-1-yl)pyrazine-2-carboxamide]	7.10
Cc1c([C@@H](O)CN2CCC(C3(NC(=O)c4ccc(-n5cnnn5)nc4)CCC3)C2)ccc2c1COC2=O (single isomer, unassigned) [90 B]	6.55
COc1cc(F)c(C#N)cc1C(=O)NC1CCN(CCc2ccc3c(c2C)COC3=O)CC1 [Example 17, 5-Cyano-4-fluoro-2-methoxy-N-(1-(2-(4-methyl-1-oxo-1,3-dihydroisobenzofuran-5-yl)ethyl)piperidin-4-yl)benzamide]	7.52
Cc1c([C@@H](O)CN2CCC(NC(=O)c3ccc(-c4ccon4)cc3)CC2)ccc2c1COC2=O [Example 35, (R)-N-(1-(2-Hydroxy-2-(4-methyl-1-oxo-1,3-dihydroisobenzofuran-5-yl)ethyl)piperidin-4-yl)-4-(isoxazol-3-yl)benzamide]	7.22
COc1ccc(C(=O)NC2CCN(CCc3ccc4c(c3C)COC4=O)CC2)cc1C#N [Example 9, 3-Cyano-4-methoxy-N-(1-(2-(4-methyl-1-oxo-1,3-dihydroisobenzofuran-5-yl)ethyl)piperidin-4-yl)benzamide]	7.52
Cc1c(C(O)CN2CCC(NC(=O)c3ccc4c(c3)COC4=O)CC2)ccc(F)c1C#N (centres unmarked) [Example 13, N-(1-(2-(3-Cyano-4-fluoro-2-methylphenyl)-2-hydroxyethyl)piperidin-4-yl)-1-oxo-1,3-dihydroisobenzofuran-5-carboxamide]	6.46
Cc1c([C@@H](O)CN2CCC(NC(=O)c3ccc4nonc4c3)CC2)ccc2c1COC2=O [Example 66, (R)-N-(1-(2-Hydroxy-2-(4-methyl-1-oxo-1,3-dihydroisobenzofuran-5-yl)ethyl)piperidin-4-yl)benzo[c][1,2,5]oxadiazole-5-carboxamide]	6.66
COc1cc(F)c(C#N)cc1C(=O)NC1CCN(C[C@H](O)c2ccc3c(c2C)COC3=O)CC1 [Example 20, (R)-5-Cyano-4-fluoro-N-(1-(2-hydroxy-2-(4-methyl-1-oxo-1,3-dihydroisobenzofuran-5-yl)ethyl)piperidin-4-yl)-2-methoxybenzamide]	7.15
Cc1c(CCN2CCC(NC(=O)c3cccc(-n4cnnn4)c3)CC2)ccc2c1COC2=O [Example 30, N-(1-(2-(4-Methyl-1-oxo-1,3-dihydroisobenzofuran-5-yl)ethyl)piperidin-4-yl)-3-(1H-tetrazol-1-yl)benzamide]	6.92
Cc1c([C@@H](O)CN2CCC(CNC(=O)c3ccc(-n4cnnn4)nc3)(c3ccccc3)C2)ccc2c1COC2=O (single isomer, unassigned) [81 A]	6.21
Cc1cc(C(=O)NC2CCN(C[C@H](O)c3ccc4c(c3C)COC4=O)CC2)ccc1C#N [Example 25, (R)-4-Cyano-N-(1-(2-hydroxy-2-(4-methyl-1-oxo-1,3-dihydroisobenzofuran-5-yl)ethyl)piperidin-4-yl)-3-methylbenzamide]	7.52
Cc1c([C@@H](O)CN2CC[C@H](NC(=O)c3ccc(-n4cnnn4)nc3)[C@H](F)C2)ccc2c1COC2=O (single isomer, unassigned) [50 A]	7.00
COc1cc(F)c(C#N)cc1C(=O)NC1CCN(C[C@@H](O)c2ccc3c(c2C)COC3=O)CC1 [Example 21, (S)-5-Cyano-4-fluoro-N-(1-(2-hydroxy-2-(4-methyl-1-oxo-1,3-dihydroisobenzofuran-5-yl)ethyl)piperidin-4-yl)-2-methoxybenzamide]	6.82
Cc1cc(C(=O)NC2(C)CCN(C[C@H](O)c3ccc4c(c3C)COC4=O)CC2)ncc1-n1cnnn1 [Example 63, (R)-N-(1-(2-Hydroxy-2-(4-methyl-1-oxo-1,3-dihydroisobenzofuran-5-yl)ethyl)-4-methylpiperidin-4-yl)-4-methyl-5-(1H-tetrazol-1-yl)picolinamide]	6.07
Cc1c([C@@H](O)CN2CC[C@@H](NC(=O)c3ccc(-n4cnnn4)cn3)C2)ccc2c1COC2=O [Example 62, N-((R)-1-((R)-2-Hydroxy-2-(4-methyl-1-oxo-1,3-dihydroisobenzofuran-5-yl)ethyl)pyrrolidin-3-yl)-5-(1H-tetrazol-1-yl)picolinamide]	6.43
Cc1cc(C(=O)N[C@H]2CCN(C[C@H](O)c3ccc4c(c3C)COC4=O)C[C@H]2F)ccc1C#N (single isomer, unassigned) [47 A]	6.80
Cc1c([C@@H](O)CN2CCC3(CC2)CCN3C(=O)c2ccc(-n3cnnn3)cn2)ccc2c1COC2=O [Example 55, (R)-5-(2-(1-(5-(1H-Tetrazol-1-yl)picolinoyl)-1,7-diazaspiro[3.5]nonan-7-yl)-1-hydroxyethyl)-4-methylisobenzofuran-1(3H)-one]	6.28
